# According to patent publication US20140287925A1, “SOLUTIONS OF CIPC AND OF A TERPENE OR OF A TERPENE OIL AND THEIR USES FOR THE ANTIGERMINATIVE TREATMENT OF BULBS OR TUBERS” (priority 2003, published 2014):
# Legend:
# [1] = cited from earlier work
# [2] = Solubility of CIPC (maximum concentration obtained in solvents); assay type: physicochemical; settings: in terpenes and/or terpene oils, clear solutions, at room temperature or even as low as 0° C.
# Protocol: Moreover, CIPC is sparingly soluble in conventional solvents, and maximum CIPC concentrations of the order of 30% (weight/volume) are generally obtained. At best, concentrations of the order of about 54% at 180° C. have been obtained. This low solubility therefore implies the use of large quantities of solvent and/or of formulation in order to obtain the required quantities of active formula. Now, it is sought in general to limit the use of these solvents because of their own toxicity and/or of the danger involved in using them, in particular because of their low boiling points which cause high risks of inflammability.
# It has now been discovered, and that is one of the subjects of the present invention, that terpenes and/or terpene oils have a high CIPC-dissolving power. In particular, the use of such terpenes and/or terpene oils makes it possible to obtain clear CIPC solutions and to reach CIPC concentrations greater than 50% by weight of CIPC relative to the total volume of the solution, at room temperature, or even temperatures as low as 0° C. Consequently, the formulations of the present invention make it possible to limit the quantity of formulated product to be used.
compound,measurement,setting,value
"CC(C)OC(=O)Nc1cccc(Cl)c1 [CIPC, isopropyl (3-chlorophenyl)carbamate]",CIPC concentration obtained at best,"[1]; conventional solvents, at 180° C.",about 54%
same,maximum CIPC concentration,[1]; in conventional solvents,~30 % (weight/volume)
same,CIPC concentration reached,[2],greater than 50 % by weight of CIPC relative to the total volume of the solution
